Laboratory results as given in patent US8946439B2, “Amide compounds, compositions and uses thereof” (Evotec AG, priority 2008, dated 2015).
Where two headings read alike, the source gives them in different places.

Columns and labels:
hP2X2/3H = molecular target: T1, hP2X2/3H (Homo sapiens, UniProt P56373+Q9UBL9); assay: Calcium uptake assay (P2X antagonist assay), P2X2/3 heteromer; format: cell-based; details: hP2X2/3H
T1 construct: expressed in transfected cells; host or cells: e.g. HEK293 or 1321N1
T1 sequence (Q9UBL9 1-471): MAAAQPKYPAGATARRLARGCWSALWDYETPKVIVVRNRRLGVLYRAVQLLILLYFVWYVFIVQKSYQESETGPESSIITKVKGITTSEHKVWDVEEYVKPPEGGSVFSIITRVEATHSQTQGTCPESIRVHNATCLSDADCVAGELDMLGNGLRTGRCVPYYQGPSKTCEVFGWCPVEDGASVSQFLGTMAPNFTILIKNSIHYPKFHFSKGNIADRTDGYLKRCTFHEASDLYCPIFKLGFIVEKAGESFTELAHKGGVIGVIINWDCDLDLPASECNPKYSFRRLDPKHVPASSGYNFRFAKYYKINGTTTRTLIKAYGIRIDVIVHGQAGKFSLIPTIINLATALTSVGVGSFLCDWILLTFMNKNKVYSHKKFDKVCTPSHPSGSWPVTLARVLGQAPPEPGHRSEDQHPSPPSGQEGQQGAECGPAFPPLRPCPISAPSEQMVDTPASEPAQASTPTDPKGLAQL
T1 sequence (P56373 1-397): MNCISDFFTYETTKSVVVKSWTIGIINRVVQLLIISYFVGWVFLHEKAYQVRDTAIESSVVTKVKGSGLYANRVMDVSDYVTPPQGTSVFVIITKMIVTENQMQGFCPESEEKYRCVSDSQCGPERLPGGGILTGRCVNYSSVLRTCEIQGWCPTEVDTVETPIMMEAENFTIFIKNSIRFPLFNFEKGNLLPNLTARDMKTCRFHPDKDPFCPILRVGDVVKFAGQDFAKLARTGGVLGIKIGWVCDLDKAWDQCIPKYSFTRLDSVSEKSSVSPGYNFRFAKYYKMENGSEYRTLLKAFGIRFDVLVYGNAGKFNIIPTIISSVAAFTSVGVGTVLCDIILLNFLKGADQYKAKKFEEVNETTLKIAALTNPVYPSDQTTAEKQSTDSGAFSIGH
Procedure, shortened: (§1)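 Stably or transiently transfected HEK293 or 1321N1 cells; the heteromer is made by adding P2X3 to a P2X2-stable line, with heteromer function isolated pharmacologically. The peak-minus-baseline FLIPR calcium signal gives % inhibition and a 4-parameter-logistic IC50.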

hP2X3 = molecular target: T2, hP2X3 (Homo sapiens, UniProt P56373); assay: Calcium uptake assay (P2X antagonist assay), P2X3 homomer; format: cell-based; details: hP2X3
T2 construct: expressed in transfected cells; host or cells: e.g. HEK293 or 1321N1
T2 sequence (P56373 1-397): T1 sequence (P56373 1-397)
Procedure, shortened: as §1

[1] = calcium uptake assay, read-out: IC50 hP2X2/3H (nM), Ca Influx
[2] = calcium uptake assay, read-out: IC50 hP2X3 (nM), Ca Influx
[3] = Ca influx (calcium uptake assay), read-out: IC50 hP2X2/3H
[4] = Ca influx (calcium uptake assay), read-out: IC50 hP2X3

| SMILES | IC50 (hP2X2/3H; [1]) | IC50 (hP2X3; [2]) | IC50 (hP2X2/3H; [3]) | IC50 (hP2X3; [4]) |
| --- | --- | --- | --- | --- |
| Cc1ccc(-c2cc(C(=O)NCc3ccc(C)nc3)cc(S(=O)(=O)N3CCCC3)c2)c(C#N)c1 [Compound 148] | > 1000 nM | < 100 nM | – | – |
| Cc1ccc(-c2cc(C(=O)N[C@H](C)c3ccc(C)nc3)cc(C(O)c3ccccn3)c2)c(C#N)c1 (stereo partly drawn) [Compound 284] | – | – | < 100 nM | < 100 nM |
| CCCS(=O)(=O)c1cc(C(=O)NCc2ccc(C(F)(F)F)nc2)cc(-c2ccc(C)cc2)c1 [Compound 44] | 100 to 500 nM | 100 to 500 nM | – | – |
| COCCOc1cc(C(=O)N[C@H](C)c2cnc(C)nc2)cc(-c2ccc(C)cc2C#N)c1 [Compound 253] | – | – | < 100 nM | < 100 nM |
| Cc1ccc(-c2cc(C(=O)N[C@H](C)c3ccc(C)nc3)cc(S(=O)(=O)C(C)C)c2)cc1 [Compound 197] | < 100 nM | < 100 nM | – | – |
| Cc1ncc(CNC(=O)c2cc(C(=O)N3CCCC3)cc(-c3ccc(F)cc3F)c2)cn1 [Compound 53] | > 1000 nM | 100 to 500 nM | – | – |
| Cc1ccc(-c2cc(Oc3nccs3)cc(C(=O)NCc3cnc(C)nc3)c2)cc1 [Compound 237] | – | – | 100 to 500 nM | < 100 nM |
| Cc1ccc(-c2cc(C(=O)NCc3ccc(C)nc3)cc(C(=O)N3CC4CN(C)CC4C3)c2)cc1 (stereo not drawn) [Compound 141] | 100 to 500 nM | < 100 nM | – | – |
| Cc1ccc(-c2cc(C(=O)N[C@H](C)c3cnn(C)c3C)cc(C(=O)N3CCCC3)c2)cc1 [Compound 109] | 501 to 1000 nM | 100 to 500 nM | – | – |
| COCCOc1cc(C(=O)NCc2cnc(C)nc2)cc(-c2ccc(C)cc2)c1 [Compound 250] | – | – | 100 to 500 nM | < 100 nM |
| CCOC(=O)c1cc(C(=O)N[C@@H](C)CO)cc(-c2ccc(C)cc2)c1 [Compound 6, (S)-Ethyl 5-(1-hydroxypropan-2-ylcarbamoyl)-4′-methylbiphenyl-3-carboxylate] | 501 to 1000 nM | 100 to 500 nM | – | – |
| Cc1ccc(-c2cc(C#N)cc(C(=O)NCc3ccc(C)nc3)c2)nc1 [Compound 160] | 501 to 1000 nM | 100 to 500 nM | – | – |
| Cc1ccc(-c2cc(C(=O)NCc3ccc(C)nc3)cc(S(=O)(=O)N3CCCC3)c2)cc1 [Compound 105] | < 100 nM | < 100 nM | – | – |
| Cc1ccc(-c2cc(C(=O)N[C@H](C)c3cnc(C)nc3)cc(C(O)c3nccs3)c2)nc1 (stereo partly drawn) [Compound 292] | – | – | < 100 nM | < 100 nM |
| Cc1ccc(-c2cc(C(=O)NCc3ccc(C)nc3)cc(C(=O)N3CCCC3)c2)cc1 [Compound 60] | < 100 nM | < 100 nM | – | – |
| Cc1ccc(-c2cc(S(=O)(=O)N3CCCC3)cc(C(=O)NCc3ccc(Cl)c(S(C)(=O)=O)c3)c2C)cc1 [Compound 66] | > 1000 nM | 100 to 500 nM | – | – |
| COCCOc1cc(C(=O)N[C@H](C)c2ccc(C)nc2)cc(-c2ccc(C)cn2)c1 [Compound 265] | – | – | 100 to 500 nM | < 100 nM |
| COc1ncc(CNC(=O)c2cc(C(=O)N3CCCC3)cc(-c3ccc(C)cc3)c2)c(N)n1 [Compound 79] | 501 to 1000 nM | 100 to 500 nM | – | – |
| Cc1ccc(-c2cc(OCC3CNCCO3)cc(C(=O)N[C@H](C)c3ccc(C)nc3)c2)nc1 (stereo partly drawn) [Compound 349] | – | – | 100 to 500 nM | < 100 nM |
| Cc1ccc(-c2cc(C(=O)NCc3ccc(C)nc3)cc(C(=O)N3CCNCC3)c2)cc1 [Compound 124] | 100 to 500 nM | < 100 nM | – | – |
| Cc1ccc(-c2cc(C(=O)NCc3ccc(C)nc3)cc(S(C)(=O)=O)c2)nc1 [Compound 113, 3-(5-Methylpyridin-2-yl)-N-((6-methylpyridin-3-yl)methyl)-5-(methylsulfonyl)benzamide] | 100 to 500 nM | < 100 nM | – | – |
| Cc1ccc(-c2cc(CO)cc(C(=O)N[C@H](C)c3ccc(C)nc3)c2)cc1 [Compound 320] | – | – | 100 to 500 nM | < 100 nM |
| Cc1ccc(-c2cc(C(=O)NC(C)c3ccc4c(c3)OCO4)cc(C(=O)N3CCCC3)c2)cc1 (stereo not drawn) [Compound 97] | 100 to 500 nM | 100 to 500 nM | – | – |
| Cc1ccc(-c2cc(C(=O)NCc3ccc(C)nc3)cc(C(=O)N3CC[C@@H](O)C3)c2)nc1 [Compound 179] | < 100 nM | < 100 nM | – | – |
| Cc1ccc(-c2cc(C(=O)NCc3ccc(C)nc3)cc(C(=O)N3CC[C@H](O)C3)c2)cc1 [Compound 95, (S)-5-(3-Hydroxypyrrolidine-1-carbonyl)-4′-methyl-N-((6-methylpyridin-3-yl)methyl)biphenyl-3-carboxamide] | 100 to 500 nM | < 100 nM | – | – |
| Cc1ccc(-c2cc(C(=O)N[C@@H](C)c3cnc(C)nc3)cc(C(=O)N3CCCC3)c2)cc1 [Compound 93] | 501 to 1000 nM | 100 to 500 nM | – | – |
| Cc1ccc(-c2cc(C(=O)NC(C)c3ccc(Cl)c(S(C)(=O)=O)c3)cc(C(=O)N3CCCC3)c2)cc1 (stereo not drawn) [Compound 45, N-(1-(4-Chloro-3-(methylsulfonyl)phenyl)ethyl)-4′-methyl-5-(pyrrolidine-1-carbonyl)biphenyl-3-carboxamide] | < 100 nM | 100 to 500 nM | – | – |
| COc1ccc([C@@H](CO)NC(=O)c2cc(-c3ccc(C)cc3)cc(S(C)(=O)=O)c2)cn1 [Compound 206, (S)—N-(2-Hydroxy-1-(6-methoxypyridin-3-yl)ethyl)-4′-methyl-5-(methylsulfonyl)biphenyl-3-carboxamide] | – | – | < 100 nM | < 100 nM |
| Cc1ccc(-c2cc(C(=O)NCc3ccc(C)nc3)cc(C(O)CN3CCOCC3)c2)cc1 (stereo not drawn) [Compound 365, 5-(1-Hydroxy-2-morpholinoethyl)-4′-methyl-N-((6-methylpyridin-3-yl)methyl)biphenyl-3-carboxamide] | – | – | < 100 nM | < 100 nM |
| Cc1ccc(-c2cc(C(=O)NCc3ccc(C(F)(F)F)nc3)cc(C(=O)N3CCCC3)c2)nc1 [Compound 123] | < 100 nM | < 100 nM | – | – |

Now from value to compound:

| IC50 (hP2X2/3H; [1]) | IC50 (hP2X3; [2]) | IC50 (hP2X2/3H; [3]) | IC50 (hP2X3; [4]) | SMILES |
| --- | --- | --- | --- | --- |
| < 100 nM | < 100 nM | – | – | Cc1ccc(-c2cc(C(=O)NCc3ccc(Cl)nc3)cc(C(=O)N(C)CC(C)C)c2)cc1 [Compound 9, N3-((6-Chloropyridin-3-yl)methyl)-N5-isobutyl-N5,4′-dimethylbiphenyl-3,5-dicarboxamide] |
| – | – | 100 to 500 nM | < 100 nM | Cc1ccc(-c2cc(C(=O)N[C@H](C)c3cnc(C)nc3)cc(S(C)(=O)=O)c2)nc1 [Compound 322] |
| < 100 nM | < 100 nM | – | – | Cc1ccc(-c2cc(C(=O)N[C@H](CO)c3ccc(C(F)F)nc3)cc(C(=O)N3CCCC3)c2)cc1 [Compound 89] |
| < 100 nM | < 100 nM | – | – | Cc1ccc(-c2cc(C(=O)NCc3cnc(C)nc3)cc(C(=O)N3CCCCC3)c2)cc1 [Compound 18, 4′-Methyl-N-((2-methylpyrimidin-5-yl)methyl)-5-(piperidine-1-carbonyl)biphenyl-3-carboxamide] |
| < 100 nM | < 100 nM | – | – | Cc1ccc(-c2cc(C(=O)N[C@H](C)c3cnc(C)nc3)cc(C(=O)N3CC(O)C3)c2)cc1 [Compound 76] |
| – | – | < 100 nM | < 100 nM | CCC(O)c1cc(C(=O)N[C@H](C)c2ccc(C)nc2)cc(-c2ccc(C)cc2)c1 (stereo partly drawn) [Compound 379] |
| 100 to 500 nM | < 100 nM | – | – | Cc1ncc(CNC(=O)c2cc(C(=O)N3CCCC3)cc(-c3ccc(Cl)cc3)c2)cn1 [Compound 40] |
| – | – | 100 to 500 nM | < 100 nM | COC1CCN(CC(O)c2cc(C(=O)NCc3ccc(C)nc3)cc(-c3ccc(C)cc3)c2)CC1 (stereo not drawn) [Compound 389] |
| – | – | < 100 nM | < 100 nM | Cc1ccc(-c2cc(C(=O)N[C@H](C)c3ccc(C)nc3)cc(C(O)c3cncn3C)c2)cc1 (stereo partly drawn) [Compound 330] |
| – | – | < 100 nM | < 100 nM | Cc1ccc(-c2cc(C(=O)N[C@H](C)c3cnc(C)nc3)cc(C(O)c3ccccn3)c2)c(C#N)c1 (stereo partly drawn) [Compound 285] |
| – | – | > 1000 nM | < 100 nM | Cc1ccc(-c2cc(OC3CNCC3O)cc(C(=O)N[C@H](C)c3cnc(C)nc3)c2)nc1 (stereo partly drawn) [Compound 355] |
| < 100 nM | < 100 nM | – | – | Cc1ccc(-c2cc(C(=O)NCc3ncc(C(F)(F)F)cc3Cl)cc(C(=O)N3CCCC3)c2)cc1 [Compound 74] |
| – | – | 100 to 500 nM | 100 to 500 nM | Cc1ccc(-c2cc(Oc3nccs3)cc(C(=O)NCc3ccc(C)nc3)c2)cc1 [Compound 238] |
| – | – | 100 to 500 nM | < 100 nM | Cc1ccc(-c2cc(OC3CCOC3)cc(C(=O)N[C@H](C)c3cnc(C)nc3)c2)nc1 (stereo partly drawn) [Compound 357] |
| – | – | < 100 nM | < 100 nM | CCS(=O)(=O)c1cc(C(=O)NCc2ccc(C)nc2)cc(-c2ccc(C)cc2)c1 [Compound 211] |
